From patent publication US6630321B1, “Method for identifying a compound that modulates the function of the gene product of an essential gene” (priority 1999, dated 2003)
Numbered stars: 1 amine (or outer) side, 2 acyl side, 3 side chain; on linkers, the order of the positions; unused ones are H or OH. Square brackets hold non-standard residues; d marks the D form. Peptide text beside a SMILES is read from it. X1 = CC[C@@H](C)[C@@H](O[*:1])C(=O)[*:2]; NMeVal(β-OH) = CN[C@H](C(=O)O)C(C)(C)O; NMeF = CN[C@@H](Cc1ccccc1)C(=O)O; aIle = CC[C@@H](C)[C@H](N)C(=O)O; NMeV = CN[C@H](C(=O)O)C(C)C

Assays:
GAL1-ERG11 strain = assay: growth (optical density) hypersensitivity of GAL1-ERG11 strain after promoter switch-off, compared to wild type; assay type: cell-based, S. cerevisiae; conditions: GAL1 promoter switched OFF (galactose to glucose), final optical density vs wt
Text: (§1) By “viable” we mean cells that have grown sufficiently so that when gene expression of an essential gene is turned off, meaningful measurements and kinetic analysis may be made. The cells are preferably allowed to grow into early stationary phase by which time a final optical density reading is taken. A reduced optical density compared to no drug or no switchoff controls is interpreted as growth inhibition.
(§2) However no reduction in growth will be observed as long as the amount of active Erg11p is high enough not to be rate limiting for growth (above the threshold, see FIG. 2) In our example the fluconazole concentration is insufficient to reduce Erg11p activity below this threshold. The situation for a GAL1-driven ERG11 gene is different however: At time 0 the gene's engineered promoter is switched from the ON state (because of the high expression of a GAL1 promoter this level is usually higher than for the native promoter) to the OFF state by changing the carbon source in the culture. From this timepoint on no new mRNA is transcribed and—after decay of the mRNA—no new Erg11 protein is being synthesized. Erg11 concentrations are now falling due to the dilution of the enzyme into new daughter cells and protein decay of Erg11p. […] This is reflected by a lower final optical density of the culture. […] Therefore the threshold-line is crossed earlier, as no new Erg11p can be synthesized. Compared to the wild-type cell, this is seen as hypersensitivity (larger reduction in growth in the presence of an identical concentration of drug). Simplified one can explain this as a reduced amount of cell-doublings before rate-limiting conditions occur.
For target and compound evaluation the hypersensitivity has to be specific for certain drug-target combinations. Therfore the method was tested and validated with another unrelated known drug-target combination: The AUR1 gene encodes inositolphosphorylceramide (IPC) synthase, an essential enzyme of the fungal sphingolipid biosynthetic pathway (Nagiec et al, J.Biol.Chem., 1997, 272,15, 9809-9817). […]

GAL1-ERG1 strain = assay: growth (optical density) hypersensitivity of GAL1-ERG1 strain after promoter switch-off, compared to wild type; assay type: cell-based, S. cerevisiae; conditions: GAL1 promoter switched OFF, FIG. 5
Text: as §1
It follows that the hypersensitive reaction towards an inhibitor of one enzyme in a pathway may be extended to inhibitors of the whole pathway. This is due to the linear arrangement of enzymes in a biochemical cascade of reactions where one enzyme provides substrate for the next. A reduced substrate supply can act synergistically with a reduced enzyme level. Thus the activity of the almost rate-limiting enzyme Erg11p (after switchoff) will be reduced further by withdrawal of its substrate normally provided by Erg1p, squalene epoxidase, another enzyme of the sterol biosynthetic pathway, through several biochemical steps. Erg1p is now inhibited by terbinafine. Any such pathway specific hypersensitivity allows the categorisation of (uncategorised) genes into the same pathway as the switched off gene. To investigate this, we examined Erg1p. […] This pathway-specific analysis tool will be extremely useful for the classification of novel inhibitors (with unknown mode of action).

[1] = biological target: Erg1p, squalene epoxidase (Saccharomyces cerevisiae, UniProt P32476); conditions: cited from earlier work
[2] = biological target: Erg11p, lanosterol C-14-demethylase (Saccharomyces cerevisiae, UniProt P10614); conditions: cited from earlier work
GAL1-AUR1 strain = assay: growth (optical density) hypersensitivity of GAL1-AUR1 strain after promoter switch-off, compared to wild type; assay type: cell-based, S. cerevisiae; conditions: GAL1 promoter switched OFF (galactose to glucose), final optical density vs wt
Text: as §1
as §2, with “Compared to the wild-type cell, this is seen as hypersensitivity (larger reduction in growth in the presence of an identical concentration of drug). Simplified one can explain this as a reduced amount of cell-doublings before rate-limiting conditions occur.” left out

[3] = biological target: T1, inositolphosphorylceramide (IPC) synthase (AUR1) (Saccharomyces cerevisiae, UniProt P36107); conditions: cited from earlier work
T1 sequence (P36107 1-401): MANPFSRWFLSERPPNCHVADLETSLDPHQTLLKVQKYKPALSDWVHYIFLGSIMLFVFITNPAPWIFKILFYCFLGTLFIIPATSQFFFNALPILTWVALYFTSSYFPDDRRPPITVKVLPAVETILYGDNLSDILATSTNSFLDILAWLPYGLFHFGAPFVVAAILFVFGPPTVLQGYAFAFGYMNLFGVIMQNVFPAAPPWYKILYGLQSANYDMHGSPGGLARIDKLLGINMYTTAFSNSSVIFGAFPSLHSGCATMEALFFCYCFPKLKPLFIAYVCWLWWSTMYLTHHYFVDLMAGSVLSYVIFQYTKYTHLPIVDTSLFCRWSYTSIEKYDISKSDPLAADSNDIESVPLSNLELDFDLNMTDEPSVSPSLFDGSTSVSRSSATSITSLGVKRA
T1 sequence (Q06346 1-221 partner): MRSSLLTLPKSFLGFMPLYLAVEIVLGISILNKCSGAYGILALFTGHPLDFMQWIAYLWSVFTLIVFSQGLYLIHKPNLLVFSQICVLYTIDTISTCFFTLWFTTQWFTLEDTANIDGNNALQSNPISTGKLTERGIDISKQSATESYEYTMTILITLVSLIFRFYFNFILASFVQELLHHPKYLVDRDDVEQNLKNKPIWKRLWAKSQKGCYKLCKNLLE

Sequence of Erg11p, lanosterol C-14-demethylase (P10614 whole entry): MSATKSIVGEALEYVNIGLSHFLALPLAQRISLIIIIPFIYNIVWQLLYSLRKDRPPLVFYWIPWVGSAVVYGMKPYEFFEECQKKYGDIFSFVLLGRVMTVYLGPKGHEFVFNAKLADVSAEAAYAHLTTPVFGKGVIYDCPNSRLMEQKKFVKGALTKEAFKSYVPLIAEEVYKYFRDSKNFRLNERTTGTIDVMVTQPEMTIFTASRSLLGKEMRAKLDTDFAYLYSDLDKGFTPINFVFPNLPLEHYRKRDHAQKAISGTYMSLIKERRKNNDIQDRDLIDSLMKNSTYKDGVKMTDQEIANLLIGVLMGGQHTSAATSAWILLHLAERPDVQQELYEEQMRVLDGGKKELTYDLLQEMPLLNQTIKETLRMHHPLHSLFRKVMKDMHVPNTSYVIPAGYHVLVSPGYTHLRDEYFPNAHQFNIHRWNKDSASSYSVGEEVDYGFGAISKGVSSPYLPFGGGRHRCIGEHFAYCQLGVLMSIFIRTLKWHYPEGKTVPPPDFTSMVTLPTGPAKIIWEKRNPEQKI
Sequence of Erg1p, squalene epoxidase (P32476 whole entry): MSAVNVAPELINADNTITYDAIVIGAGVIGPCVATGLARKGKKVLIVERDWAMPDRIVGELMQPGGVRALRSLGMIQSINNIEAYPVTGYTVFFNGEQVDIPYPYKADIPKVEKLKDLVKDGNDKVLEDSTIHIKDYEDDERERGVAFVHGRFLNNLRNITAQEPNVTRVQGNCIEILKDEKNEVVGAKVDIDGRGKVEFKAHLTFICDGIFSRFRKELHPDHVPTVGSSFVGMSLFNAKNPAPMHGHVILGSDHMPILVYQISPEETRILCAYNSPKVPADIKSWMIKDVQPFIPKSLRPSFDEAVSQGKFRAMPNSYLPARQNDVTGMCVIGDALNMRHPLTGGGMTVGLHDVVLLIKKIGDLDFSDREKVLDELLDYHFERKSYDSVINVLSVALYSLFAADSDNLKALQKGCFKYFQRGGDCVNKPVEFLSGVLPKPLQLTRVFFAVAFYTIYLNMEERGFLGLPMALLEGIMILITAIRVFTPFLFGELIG

Row | Compound | hypersensitivity (larger reduction in growth than wild type at identical drug concentration) (GAL1-ERG11 strain) | hypersensitivity (larger reduction in growth than wild type at identical drug concentration) (GAL1-ERG1 strain) | enzyme inhibition [1] | enzyme inhibition [2] | hypersensitivity (larger reduction in growth than wild type at identical drug concentration) (GAL1-AUR1 strain) | potency of enzyme inhibition [3]
1 | CN(C/C=C/C#CC(C)(C)C)Cc1cccc2ccccc12 [terbinafine] | as hypersuscepible to terbinafine as GAL1-ERG1 | hypersuscepible | inhibited | Erg11p is not |  | 
2 | OC(Cn1cncn1)(Cn1cncn1)c1ccc(F)cc1F [fluconazole] | prominent hypersensitive response |  |  | inhibits Erg11p | neither did GAL1-AUR1 show hypersensitivity | 
3 | CC[C@@H](C)[C@@H]1NC(=O)[C@@H]2CCCN2C(=O)[C@H](Cc2ccccc2)N(C)C(=O)[C@H](Cc2ccccc2)NC(=O)[C@H](C(C)C)N(C)C(=O)[C@@H]([C@H](C)CC)OC(=O)[C@H](C(C)(C)O)N(C)C(=O)[C@H](CC(C)C)NC(=O)[C@H](C(C)C)N(C)C1=O [aureobasidinA] (cyclo(F[NMeF]P[aIle][NMeV]L[NMeVal(β-OH)][X1][NMeV])) | no increased sensitivity |  |  |  | prominent hypersensitive response | sub nanomolar potency
